Results reported in patent US9408392B2, “Compounds” (SYNGENTA PARTICIPATIONS AG, priority 2012, dated 2016).
Where “and” joins values, the source holds several entries; their conditions need not be identical. Equal values may be shown once.

Experiments:
M. incognita = experiment: Meloidogyne spp. (Root-knot nematode) contact activity, preventive, drench test (Biological Screen Nem 2); assay type: in vivo; conditions: cucumber cv. Toshka in pots, WP10 suspension at 20 ppm, 3000 eggs of M. incognita, harvested after fourteen days, Zeck's gall index, cis vs trans isomers
Method: Meloidogyne spp. (Root-knot nematode) contact activity, preventive, drench test. Cucumber cv. Toshka seeds were shown directly into pots filled with a sandy substrate. Six days later pots were each treated with 5 ml of a WP10 suspension of the test compound at 20 ppm. Hereafter pots were inoculated with 3000 eggs of M. incognita. The trial was harvested fourteen days after trial application and inoculation. Root galling was assessed according to Zeck's gall index (Zeck, 1971). Biological Screen Nem 2. Meloidogyne spp. (Root-knot nematode) contact activity, preventive, drench test. Values are given in % galling.

[1] = system: Meloidogyne spp. (Root-knot nematode); experiment: Meloidogyne spp. (Root-knot nematode) contact activity, preventive, pouch test (Biological Screen Nem 1); assay type: in vivo; conditions: cucumber cv. Toshka, test solutions at 200 ppm, 3000 eggs, assessed after twelve days, cis vs trans isomers
Method: Meloidogyne spp. (Root-knot nematode) contact activity, preventive. Pouch test. Filter papers (9 cm×4.5 cm) with a small pocket were placed into plastic pouches (12 cm×6 cm). One cucumber cv. Toshka seed was placed in the centre of the filter paper pocket of all the pouches needed for a test. The cucumber seeds in the pouches were treated with test solutions at 200 ppm by pipetting the solution directly over the cucumber seed in the filter paper pocket in the pouch. Prior to application, the compound solution was prepared at twice the concentration required and the egg suspension is prepared with FORL nutrient solution with 3000 eggs/0.5 ml. After applying all the treatments, 3000 eggs (in 0.5 ml of FORL nutrient solution) were pipetted into the pouches. The pouches were incubated in a moist chamber for twelve days and watered regularly to maintain good filter paper moisture essential for the growing cucumber root system. After this period, the filter paper containing the germinated cucumber seedling was removed from the plastic pouch to assess the number of galls caused by Meloidogyne spp. per root system. Biological Screen Nem 1. Meloidogyne spp. (Root-knot nematode) contact activity, preventive. Pouch test. Values are given in % galling.

melting point | SMILES | Nem 2 (% galling) (M. incognita) [%] | Nem 1 (% galling) [1] [%]
90 to 96 °C | C[C@H]1C(NC(=O)c2c(F)cccc2F)[C@H]1c1ccc(F)cc1 (mixture of isomers) [Compound 68.003, 2,6-difluoro-N-[(1R,2R,3R)-2-(4-fluorophenyl)-3-methyl-cyclopropyl]benzamide] |  | 
167 to 169 °C | C[C@H]1C(c2ccc(Cl)cc2)[C@@H]1NC(=O)c1ccccc1C(F)(F)F (mixture of isomers) [Compound 68.008, N-[(1R,2R,3S)-2-(4-chlorophenyl)-3-methyl-cyclopropyl]-2-(trifluoromethyl)benzamide] |  | 
140 to 142 °C | C[C@]1(c2ccc(Cl)cc2)CC1NC(=O)c1c(F)cccc1F (mixture of isomers) [Compound 68.009, N-[(1R,2R)-2-(4-chlorophenyl)-2-methyl-cyclopropyl]-2,6-difluoro-benzamide] |  | 

Continued, molecule first:

SMILES | melting point | Nem 2 (% galling) (M. incognita) [%] | Nem 1 (% galling) [1] [%]
O=C(N[C@@H]1C[C@@H]1c1ccc(Cl)cc1Cl)c1ccccc1C(F)(F)F (racemic) [Compound 67-014] |  | 98 | 100
O=C(N[C@@H]1C[C@@H]1c1ccc(C(F)(F)F)cc1)c1ccccc1C(F)(F)F (racemic) [Compound 67-026] |  | 82 | 64
O=C(N[C@@H]1C[C@@H]1c1ccc(F)cc1)c1ccccc1C(F)(F)F (relative stereo) [Compound 67-003, N-[cis-2-(4-Fluoro-Phenyl)-Cyclopropyl]-2-Trifluoromethyl-benzamide] | 140 to 142 °C and 139 to 140 °C |  | 
O=C(N[C@@H]1C[C@@H]1c1ccc(OC(F)F)cc1)c1ccccc1C(F)(F)F (relative stereo) [Compound 67-011, N-[cis-2-(4-difluoromethoxy-phenyl)-cyclopropyl]-2-trifluoromethyl-benzamide] | 133 to 136 °C |  | 
Cn1cc(C(=O)N[C@@H]2C[C@@H]2c2ccc(F)cc2)c(C(F)F)n1 (relative stereo) [Compound 67.002, 3-difluoromethyl-1-methyl-1H-pyrazole-4-carboxylic acid [(cis)-2-(4-fluoro-phenyl)-cyclopropyl]-amide] | 141 to 143 °C |  | 
O=C(N[C@@H]1CC1c1ccc(Cl)cc1Cl)c1c(F)cccc1F (stereo partly shown) [Compound 67-016] | 179 to 182 °C | 96 | 81
